# From ChEMBL document CHEMBL4043200, “Synthesis and biological evaluation of 8-aryl-2-morpholino-7-O-substituted benzo[e][1,3]oxazin-4-ones against DNA-PK, PI3K, PDE3A enzymes and platelet aggregation” (Bioorg Med Chem, 2017)
# Legend:
# [1] = target: T1, cGMP-inhibited 3',5'-cyclic phosphodiesterase 3A (Homo sapiens, UniProt Q14432); experiment: Inhibition of human PDE3A at 10 uM by HTRF assay
# [2] = target: T1, cGMP-inhibited 3',5'-cyclic phosphodiesterase 3A; experiment: Inhibition of human PDE3A by HTRF assay
# [3] = target: DNA-dependent protein kinase catalytic subunit (Homo sapiens, UniProt P78527); experiment: Inhibition of human DNA-PK catalytic subunit at 10 uM using DNA and [EPPLSQEAFADLWKK] peptide substrate by HTRF assay
# [4] = target: T2, Phosphatidylinositol 4,5-bisphosphate 3-kinase catalytic subunit delta isoform (Homo sapiens) (UniProt O00329); experiment: Inhibition of wild type PI3K-delta (unknown origin) assessed as decrease in ATP consumption at 10 uM using phosphotidylinositol bisphosphate and ATP measured after 60 mins by Kinase-Glo reagent based luminescence assay
# T2 sequence (whole entry): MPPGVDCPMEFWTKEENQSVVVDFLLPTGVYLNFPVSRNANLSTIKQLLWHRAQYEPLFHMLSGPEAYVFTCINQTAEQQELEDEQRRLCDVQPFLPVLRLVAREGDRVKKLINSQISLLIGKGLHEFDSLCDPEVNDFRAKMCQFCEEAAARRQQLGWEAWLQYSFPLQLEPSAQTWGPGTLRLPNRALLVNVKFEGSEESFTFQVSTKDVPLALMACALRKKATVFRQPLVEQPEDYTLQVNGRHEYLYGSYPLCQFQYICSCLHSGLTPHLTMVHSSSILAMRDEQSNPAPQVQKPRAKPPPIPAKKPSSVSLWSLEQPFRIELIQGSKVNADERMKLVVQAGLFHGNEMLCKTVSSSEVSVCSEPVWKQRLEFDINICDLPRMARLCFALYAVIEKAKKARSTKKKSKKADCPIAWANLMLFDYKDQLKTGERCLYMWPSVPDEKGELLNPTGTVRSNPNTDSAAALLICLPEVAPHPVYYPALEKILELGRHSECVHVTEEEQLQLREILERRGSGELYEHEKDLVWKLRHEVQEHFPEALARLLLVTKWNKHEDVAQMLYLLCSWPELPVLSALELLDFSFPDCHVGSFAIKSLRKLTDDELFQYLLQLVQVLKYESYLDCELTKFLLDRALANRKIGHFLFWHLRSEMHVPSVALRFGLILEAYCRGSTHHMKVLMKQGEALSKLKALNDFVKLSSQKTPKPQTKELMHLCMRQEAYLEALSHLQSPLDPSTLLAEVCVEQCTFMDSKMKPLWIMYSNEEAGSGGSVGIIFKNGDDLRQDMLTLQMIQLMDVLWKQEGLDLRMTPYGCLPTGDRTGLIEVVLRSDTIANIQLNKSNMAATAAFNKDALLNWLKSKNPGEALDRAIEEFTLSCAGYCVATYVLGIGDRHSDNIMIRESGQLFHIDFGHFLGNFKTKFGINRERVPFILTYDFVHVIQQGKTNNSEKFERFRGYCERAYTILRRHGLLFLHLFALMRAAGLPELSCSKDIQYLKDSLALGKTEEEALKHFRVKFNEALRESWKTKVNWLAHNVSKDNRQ
# [5] = target: Phosphatidylinositol 4,5-bisphosphate 3-kinase catalytic subunit gamma isoform (Homo sapiens) (UniProt P48736); experiment: Inhibition of wild type PI3K-gamma (unknown origin) assessed as decrease in ATP consumption at 10 uM using phosphotidylinositol bisphosphate and ATP measured after 60 mins by Kinase-Glo reagent based luminescence assay
# [6] = target: Phosphatidylinositol 4,5-bisphosphate 3-kinase catalytic subunit beta isoform (Homo sapiens) (UniProt P42338); experiment: Inhibition of wild type PI3K-beta (unknown origin) assessed as decrease in ATP consumption at 10 uM using phosphotidylinositol bisphosphate and ATP measured after 60 mins by Kinase-Glo reagent based luminescence assay
# [7] = target: Phosphatidylinositol 4,5-bisphosphate 3-kinase catalytic subunit alpha isoform (Homo sapiens) (UniProt P42336); experiment: Inhibition of wild type PI3K-alpha (unknown origin) assessed as decrease in ATP consumption at 10 uM using phosphotidylinositol bisphosphate and ATP measured after 60 mins by Kinase-Glo reagent based luminescence assay
# Platelet = experiment: Inhibition of platelet aggregation in human platelet-rich plasma pre-incubated for 5 mins before ADP stimulation for 10 mins; format: functional, cell-based
# [8] = target: T3, Phosphatidylinositol 4,5-bisphosphate 3-kinase catalytic subunit delta isoform (Homo sapiens, UniProt O00329); experiment: Inhibition of wild type PI3K-delta (unknown origin) assessed as decrease in ATP consumption using phosphotidylinositol bisphosphate and ATP measured after 60 mins by Kinase-Glo reagent based luminescence assay
# T3 sequence (O00329 whole entry): T2 sequence (whole entry)
# Sequence of DNA-dependent protein kinase catalytic subunit (P78527 whole entry, canonical isoform): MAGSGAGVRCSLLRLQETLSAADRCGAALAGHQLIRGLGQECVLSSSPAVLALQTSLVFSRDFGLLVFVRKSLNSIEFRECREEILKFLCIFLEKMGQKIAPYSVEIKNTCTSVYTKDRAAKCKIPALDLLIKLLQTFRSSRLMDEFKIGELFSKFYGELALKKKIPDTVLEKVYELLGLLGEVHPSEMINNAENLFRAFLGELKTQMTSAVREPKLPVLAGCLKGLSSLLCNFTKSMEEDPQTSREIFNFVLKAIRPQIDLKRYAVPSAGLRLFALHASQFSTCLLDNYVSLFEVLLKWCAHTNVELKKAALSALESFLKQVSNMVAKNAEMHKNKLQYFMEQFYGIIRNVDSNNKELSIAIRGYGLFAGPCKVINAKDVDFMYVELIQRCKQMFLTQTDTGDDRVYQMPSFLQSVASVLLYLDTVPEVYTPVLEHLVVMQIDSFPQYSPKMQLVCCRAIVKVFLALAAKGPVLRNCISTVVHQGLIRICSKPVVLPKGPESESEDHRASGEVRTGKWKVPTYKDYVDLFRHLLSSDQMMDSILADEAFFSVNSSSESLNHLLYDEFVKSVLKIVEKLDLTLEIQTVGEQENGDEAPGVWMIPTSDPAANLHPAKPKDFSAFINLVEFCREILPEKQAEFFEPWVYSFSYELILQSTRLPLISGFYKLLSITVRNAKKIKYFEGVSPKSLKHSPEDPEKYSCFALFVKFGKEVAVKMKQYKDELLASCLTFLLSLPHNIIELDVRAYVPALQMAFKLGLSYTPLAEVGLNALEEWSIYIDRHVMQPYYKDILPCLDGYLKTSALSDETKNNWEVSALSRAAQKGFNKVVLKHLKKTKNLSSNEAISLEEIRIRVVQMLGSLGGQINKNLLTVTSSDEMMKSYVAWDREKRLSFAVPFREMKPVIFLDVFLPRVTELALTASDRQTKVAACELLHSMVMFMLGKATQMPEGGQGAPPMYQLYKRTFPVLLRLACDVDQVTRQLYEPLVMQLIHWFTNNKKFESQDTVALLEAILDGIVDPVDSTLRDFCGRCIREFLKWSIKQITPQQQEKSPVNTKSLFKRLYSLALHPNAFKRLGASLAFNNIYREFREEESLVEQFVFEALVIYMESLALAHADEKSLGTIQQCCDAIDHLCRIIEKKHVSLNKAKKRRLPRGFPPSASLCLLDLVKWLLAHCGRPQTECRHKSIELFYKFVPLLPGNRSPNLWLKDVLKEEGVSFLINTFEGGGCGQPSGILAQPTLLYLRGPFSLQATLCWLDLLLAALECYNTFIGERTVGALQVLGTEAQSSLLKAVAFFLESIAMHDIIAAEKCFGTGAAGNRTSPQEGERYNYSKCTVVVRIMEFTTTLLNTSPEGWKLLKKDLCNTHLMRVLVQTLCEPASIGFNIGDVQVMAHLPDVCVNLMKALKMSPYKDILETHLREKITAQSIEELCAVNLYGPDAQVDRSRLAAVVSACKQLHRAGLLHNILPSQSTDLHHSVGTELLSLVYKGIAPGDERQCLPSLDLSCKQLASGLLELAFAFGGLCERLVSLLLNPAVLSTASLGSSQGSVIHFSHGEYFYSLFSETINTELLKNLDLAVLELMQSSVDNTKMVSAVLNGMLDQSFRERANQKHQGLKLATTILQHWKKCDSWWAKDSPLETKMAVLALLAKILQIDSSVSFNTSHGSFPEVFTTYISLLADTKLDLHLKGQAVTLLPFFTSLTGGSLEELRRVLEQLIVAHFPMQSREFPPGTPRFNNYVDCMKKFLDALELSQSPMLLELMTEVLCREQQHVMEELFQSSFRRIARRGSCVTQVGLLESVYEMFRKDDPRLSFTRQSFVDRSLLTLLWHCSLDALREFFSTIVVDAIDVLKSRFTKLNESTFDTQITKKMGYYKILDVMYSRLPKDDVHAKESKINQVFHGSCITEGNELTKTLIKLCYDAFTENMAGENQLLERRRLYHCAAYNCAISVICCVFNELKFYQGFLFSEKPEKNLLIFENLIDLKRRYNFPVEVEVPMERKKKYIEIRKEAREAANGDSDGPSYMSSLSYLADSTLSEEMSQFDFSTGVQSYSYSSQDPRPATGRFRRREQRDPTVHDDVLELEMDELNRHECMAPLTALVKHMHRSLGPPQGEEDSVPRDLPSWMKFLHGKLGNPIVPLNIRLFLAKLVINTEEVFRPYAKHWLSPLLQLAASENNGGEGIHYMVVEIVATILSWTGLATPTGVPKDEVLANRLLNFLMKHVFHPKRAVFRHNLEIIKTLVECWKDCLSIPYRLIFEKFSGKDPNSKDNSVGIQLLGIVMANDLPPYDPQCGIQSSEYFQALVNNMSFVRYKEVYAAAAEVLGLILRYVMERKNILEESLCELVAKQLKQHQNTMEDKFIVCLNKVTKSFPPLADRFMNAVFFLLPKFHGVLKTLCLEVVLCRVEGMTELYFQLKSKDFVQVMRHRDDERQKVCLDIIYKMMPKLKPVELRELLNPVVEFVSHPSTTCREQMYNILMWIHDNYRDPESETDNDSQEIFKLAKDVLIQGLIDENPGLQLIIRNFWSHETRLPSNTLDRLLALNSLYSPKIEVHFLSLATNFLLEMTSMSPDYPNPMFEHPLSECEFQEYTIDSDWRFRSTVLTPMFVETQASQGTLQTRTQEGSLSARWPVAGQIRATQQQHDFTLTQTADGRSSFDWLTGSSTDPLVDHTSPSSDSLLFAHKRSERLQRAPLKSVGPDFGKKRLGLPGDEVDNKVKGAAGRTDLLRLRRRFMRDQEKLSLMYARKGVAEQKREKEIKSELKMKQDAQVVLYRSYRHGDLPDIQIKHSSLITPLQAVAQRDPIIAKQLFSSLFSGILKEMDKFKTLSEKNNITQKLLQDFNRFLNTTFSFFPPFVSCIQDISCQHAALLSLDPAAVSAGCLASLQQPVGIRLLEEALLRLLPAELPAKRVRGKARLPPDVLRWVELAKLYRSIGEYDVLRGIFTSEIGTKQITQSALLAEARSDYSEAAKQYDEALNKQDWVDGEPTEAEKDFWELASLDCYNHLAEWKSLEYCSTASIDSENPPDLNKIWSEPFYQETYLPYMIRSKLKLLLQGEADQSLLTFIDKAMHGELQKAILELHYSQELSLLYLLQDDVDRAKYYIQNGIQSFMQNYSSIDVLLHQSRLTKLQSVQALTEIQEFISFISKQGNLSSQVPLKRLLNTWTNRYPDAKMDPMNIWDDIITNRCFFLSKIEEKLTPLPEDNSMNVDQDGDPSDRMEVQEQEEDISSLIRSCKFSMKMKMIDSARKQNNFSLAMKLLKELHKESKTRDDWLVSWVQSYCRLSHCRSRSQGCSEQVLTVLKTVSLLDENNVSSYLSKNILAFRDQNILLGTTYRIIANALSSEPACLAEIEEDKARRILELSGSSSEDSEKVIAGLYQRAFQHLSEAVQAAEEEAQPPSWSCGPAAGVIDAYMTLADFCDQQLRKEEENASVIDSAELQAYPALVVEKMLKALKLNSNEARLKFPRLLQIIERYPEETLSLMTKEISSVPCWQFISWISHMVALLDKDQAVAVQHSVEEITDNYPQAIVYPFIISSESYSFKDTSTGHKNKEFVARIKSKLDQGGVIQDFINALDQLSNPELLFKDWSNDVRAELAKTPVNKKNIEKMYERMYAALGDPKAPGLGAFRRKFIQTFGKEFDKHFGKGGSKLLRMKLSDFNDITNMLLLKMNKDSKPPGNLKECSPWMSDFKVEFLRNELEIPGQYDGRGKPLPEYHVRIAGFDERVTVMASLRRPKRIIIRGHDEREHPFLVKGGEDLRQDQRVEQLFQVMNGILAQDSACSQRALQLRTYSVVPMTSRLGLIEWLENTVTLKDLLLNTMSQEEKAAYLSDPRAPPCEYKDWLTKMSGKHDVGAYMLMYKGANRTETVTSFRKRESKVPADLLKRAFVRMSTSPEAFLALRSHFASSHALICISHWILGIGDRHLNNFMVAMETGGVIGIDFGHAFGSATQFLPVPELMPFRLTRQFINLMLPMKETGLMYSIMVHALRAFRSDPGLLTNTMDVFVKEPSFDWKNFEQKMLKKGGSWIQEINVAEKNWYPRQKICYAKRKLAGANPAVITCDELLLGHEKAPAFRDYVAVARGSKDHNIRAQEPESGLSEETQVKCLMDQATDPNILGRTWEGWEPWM
# Sequence of Phosphatidylinositol 4,5-bisphosphate 3-kinase catalytic subunit alpha isoform (Homo sapiens) (P42336 whole entry, canonical isoform): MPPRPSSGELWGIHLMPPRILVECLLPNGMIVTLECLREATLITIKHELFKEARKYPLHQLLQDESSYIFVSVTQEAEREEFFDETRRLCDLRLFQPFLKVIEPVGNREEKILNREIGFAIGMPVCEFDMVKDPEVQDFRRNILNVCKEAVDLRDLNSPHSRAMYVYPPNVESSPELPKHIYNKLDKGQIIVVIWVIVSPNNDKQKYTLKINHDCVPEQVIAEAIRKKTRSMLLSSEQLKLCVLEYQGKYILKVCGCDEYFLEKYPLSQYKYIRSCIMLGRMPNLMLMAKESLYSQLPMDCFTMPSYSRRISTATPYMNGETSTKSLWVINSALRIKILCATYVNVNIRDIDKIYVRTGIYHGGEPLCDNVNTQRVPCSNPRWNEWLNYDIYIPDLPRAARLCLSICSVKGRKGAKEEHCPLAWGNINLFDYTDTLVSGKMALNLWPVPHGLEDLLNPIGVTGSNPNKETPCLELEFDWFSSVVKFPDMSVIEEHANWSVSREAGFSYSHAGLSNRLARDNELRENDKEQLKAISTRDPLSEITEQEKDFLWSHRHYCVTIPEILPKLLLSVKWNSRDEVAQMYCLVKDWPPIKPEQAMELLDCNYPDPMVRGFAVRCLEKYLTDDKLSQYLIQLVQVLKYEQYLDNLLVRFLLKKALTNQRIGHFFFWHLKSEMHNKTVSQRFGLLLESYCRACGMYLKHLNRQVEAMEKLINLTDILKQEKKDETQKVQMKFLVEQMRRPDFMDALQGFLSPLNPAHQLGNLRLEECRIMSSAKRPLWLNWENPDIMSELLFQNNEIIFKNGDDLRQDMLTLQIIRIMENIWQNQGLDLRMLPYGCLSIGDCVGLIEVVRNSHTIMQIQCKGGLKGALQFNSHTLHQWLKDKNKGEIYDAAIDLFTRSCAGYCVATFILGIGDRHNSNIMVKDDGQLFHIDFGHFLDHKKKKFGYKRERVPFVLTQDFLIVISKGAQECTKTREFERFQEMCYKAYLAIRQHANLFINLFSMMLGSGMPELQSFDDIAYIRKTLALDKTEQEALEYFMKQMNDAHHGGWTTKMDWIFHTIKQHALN
Compound,inhibition [1],IC50 [2],inhibition [3],inhibition [4],inhibition [5],inhibition [6],inhibition [7],IC50 (Platelet),IC50 [8]
O=c1nc(N2CCOCC2)oc2c(-c3ccccc3)c(OCc3cccnc3)ccc12,50.4%,,18%,85.5%,25.7%,64.4%,57.9%,80 µM,7.2 µM
O=c1nc(N2CCOCC2)oc2c(-c3ccsc3)c(OCc3ccccn3)ccc12,88.8%,3.05 µM,39.7%,18%,4.4%,-3%,-8.1%,,
CN1CCN(CCOc2ccc3c(=O)nc(N4CCOCC4)oc3c2-c2ccccc2)CC1,11.4%,,9.8%,53.4%,4.3%,31.8%,24%,10 µM,
O=c1nc(N2CCOCC2)oc2c(-c3cccs3)c(OCc3ccccn3)ccc12,74.5%,2.95 µM,40.1%,21.8%,0.1%,4.1%,-0.6%,,
O=c1nc(N2CCOCC2)oc2c(-c3ccc(Cl)cc3)c(OCc3ccncc3)ccc12,56.1%,,21.5%,63.3%,26.5%,56.6%,28.7%,,9.2 µM
O=c1nc(N2CCOCC2)oc2c(-c3cc4ccccc4s3)c(OCc3cccnc3)ccc12,56.4%,,8.9%,75.6%,-8.1%,18.1%,2.6%,,2.7 µM

# Second part, the molecule after the results:
inhibition [1],IC50 [2],inhibition [3],inhibition [4],inhibition [5],inhibition [6],inhibition [7],IC50 (Platelet),IC50 [8],Compound
77.9%,3.01 µM,47.2%,24.6%,-1%,,,,,O=c1nc(N2CCOCC2)oc2c(-c3cc4ccccc4s3)c(OCc3ccccn3)ccc12
71.3%,2.75 µM,25.7%,88.9%,38.1%,66.4%,59.2%,,4 µM,O=c1nc(N2CCOCC2)oc2c(-c3ccccc3)c(OCc3ccccn3)ccc12
,7 µM,,,,,,,,CC(C)Cn1c(=O)n(C)c(=O)c2[nH]cnc21 [ISOBUTYLMETHYLXANTHINE]
